Here are results for three compounds from patent publication US20190022117A1, “COMBINATION THERAPY” (NuCana plc, priority 2015, published 2019).

Read-outs that look alike come from different tables or passages of the source.

One test has as its system SKOV3 cells. Put plainly: Sulforhodamine B (SRB) assay, single agent. In kind it is cell-based. To be noted: SRB assay on day 4, read-out: IC50. The protocol: SKOV3 cells were purchased from American Type Culture Collection (ATCC). They were cultured at 37° C. and 5% CO2 in Gibco™ RMPI Medium 1640+GlutaMAX™-I (Life Technologies; 61870-010) with 10% Gibco™ FBS (Life Technologies; 10270-106) and 1% Gibco™ Penicillin-Streptomycin (Life Technologies; Ser. No. 15/140,122), known as complete medium, in a cell culture flask. Cisplatin was purchased from TEVA UK Limited (PL 00289/1146). Fluvastatin and Sulforaphane were both purchased from Merck Millipore Corporation (Catalogue numbers 344096 and 574215 respectively). (S)-NUC-1031 was provided by NuCana® Ltd.
SKOV3 cells were plated at 250 cells in 200 μl per well in the middle 60 wells of Costar® 3596 96-well plates, with the outer 36 wells filled with 200 μl PBS each. The cells were allowed to grow in complete medium for 48 hours before different drug compounds were added in. For single agent, cisplatin, (S)-NUC-1031, fluvastatin and sulforaphane in complete medium at 10 different concentrations were added into the middle 60 wells (Day 0). Each concentration was loaded in sextuplicate. Cells were exposed to the compounds for 24 hours and the compounds were replaced by pure complete medium. The experiment with fluvastatin was repeated with 4-day exposure instead of 24 hours. The plates were fixed with 50 μl 25% TCA solution at 4° C. for 60 minutes on day 4 after the drug compounds were added for Sulforhodamine B assay (see below).
After adding the TCA solution, the plates were washed under running tap water 10 times and were allowed to dry in the oven at 50° C. The cells were then stained with 50 μl SRB dye, and the dye was washed off with 1% glacial acetic acid for 4 times 30 minutes after SRB addition. The plates were then dried in the oven. SRB dye was allowed to dissolve in 150 μl 10 mM Tris buffer solution for 60 minutes on a rocker. The plates were read on Biohit BP800 Microplate Reader (Biohit Healthcare) and the absorbance was measured at 540 nm. […]
(In general: In SRB staining, fixed cells bind dye roughly in proportion to their protein.)

In the next test the test system is OVCAR-3. Briefly: CellTiter-Glo cytotoxicity assay, single agents (Stage 1). In kind it is cell-based. To be noted: CTG assay 72 h. As for the experimental part: (§1) A2780, SK-OV-3, OVCAR-3, NCI-H460, NCI-H1975, NCI-H2122, 5637 and HT1376 were cultured in RPMI Medium 1640 (Invitrogen-22400105) supplemented with 10% fetal bovine serum (FBS; Invitrogen-10099141). All the cell lines were maintained in a humidified incubator at 37° C. with 5% CO2. Cell culture media and supplements were purchased from Invitrogen, and tissue culture flasks were purchased from Corning, 96-well plates and 384-well plates were purchased from Greiner. CellTiter-Glo Luminescent Cell Viability Assay kits were purchased from Promega (Promega-G7573), cells counter Vi-Cell was purchased from Beckman, detection instrument Envision was purchased from PerkinElmer.
(§2) Paclitaxcel (used as a reference) and cisplatin were purchased from SELLECK, and they were of highest purity available. All compounds attained solubility in DMSO and when diluted into culture media. DMSO, compounds solutions and culture media were warmed to 37° C. for the solution preparation and dilutions.
(§3) Eight cell lines were allowed to adhere to 96-well plates overnight (100 μL/well), for drug treatments with 3.16 fold dilution, 9 dose points, triplicates or vehicle control, compound stock solutions were prepared in DMSO and added to the wells to give the indicated final drug concentrations. Final DMSO concentration was 0.5%. Cellular ATP concentrations were assessed by using the CellTiter-Glo Cell Viability Assay as per the manufacturer's instructions 72 h after drug addition.
(§4) In Stage 1 the IC50 (using 5 or more concentrations) of each individual compound (cisplatin, gemcitabine and NUC-1031) in the relevant cell lines was determined.
On the technique in general: Cellular ATP, detected with luciferase, serves as a proxy for viable cell number.

The subject of another test is 5637. The test is described as above. In kind it is cell-based. Conditions: CTG assay 72 h. As for the experimental part:
as §1, §2, §3, §4

The subject of another test is SK-OV3. The test is described as above. In kind it is cell-based. As for the experimental part:
as §1, §2, §3, §4

The test system of a further test is A2780. The description is as above. In kind it is cell-based. Conditions: CTG assay 72 h. As for the experimental part:
as §1, §2, §3, §4

The next test concerns HT1376. The description is as above. In kind it is cell-based. The protocol:
as §1, §2, §3, §4

For another test, the system named is NCI-H1975. The test is described as above. Format: cell-based. Conditions: CTG assay 72 h. As for the experimental part: as §1, §2, §3, §4
The next test relates to NCI-H460. Described as above. Format: cell-based. Conditions: CTG assay 72 h. The protocol:
as §1, §2, §3, §4

The next test has as its system HT1376 (Bladder). Briefly: CellTiter-Glo combination analysis (Stage 2). In kind it is cell-based. Conditions: cisplatin alone dose-effect curve. As for the experimental part: A2780, SK-OV-3, OVCAR-3, NCI-H460, NCI-H1975, NCI-H2122, 5637 and HT1376 were cultured in RPMI Medium 1640 (Invitrogen-22400105) supplemented with 10% fetal bovine serum (FBS; Invitrogen-10099141). All the cell lines were maintained in a humidified incubator at 37° C. with 5% CO2. Cell culture media and supplements were purchased from Invitrogen, and tissue culture flasks were purchased from Corning, 96-well plates and 384-well plates were purchased from Greiner. CellTiter-Glo Luminescent Cell Viability Assay kits were purchased from Promega (Promega-G7573), cells counter Vi-Cell was purchased from Beckman, detection instrument Envision was purchased from PerkinElmer. 8 cell lines were allowed to adhere to 384 well plates overnight (60 μL/well), for combination study, four combinations of two compounds will be investigated twice, keeping one compound at a fixed concentration while increasing the concentration of the second compound (10 fold dilution, 5 dose points), compound stock solutions were prepared in DMSO and added to the wells to give the indicated final drug concentrations by D300e digital dispenser. […] Cellular ATP concentrations were assessed by using the CellTiter-Glo Cell Viability Assay as per the manufacturer's instructions 72 hours after drug addition. Stage 2 determined the interaction of selected combinations of compounds on cancer cell growth. […]

In the next test the test system is biliary tract cancer. Conditions: cited from earlier work.
The mark [1] stands for this setting: absolute IC50, read-out: Ab IC50.
Setting [2] is: CTG assay 72 h, absolute IC50, read-out: Ab IC50.
Where [3] appears, read: CTG assay 72 h, relative IC50, read-out: IC50.
The mark [4] stands for this setting: Homo sapiens, absolute IC50, read-out: Ab IC50.
Setting [5] is: Homo sapiens, relative IC50, read-out: IC50.

For `N.N.[Cl][Pt][Cl]` [Cisplatin, cisplatin], the IC50 with SKOV3 cells (24 hours exposure) was determined as 2440 nM; in the test with OVCAR-3 (setting [1]), 28300 nM; with OVCAR-3 (relative IC50, read-out: IC50), 23500 nM; with 5637 (setting [1]) it was 13700 nM; in the test on 5637 (relative IC50, read-out: IC50), 13200 nM; in the test on SK-OV3 (setting [2]) it was 45600 nM. The IC50 in the test with SK-OV3 (setting [3]) was 33700 nM; in the test with A2780 (setting [1]) it was 11000 nM; in the test with A2780 (relative IC50, read-out: IC50), 10100 nM; with HT1376 (setting [2]), 20500 nM; in the test on HT1376 (setting [3]), 18400 nM; with NCI-H1975 (setting [1]), 69600 nM. For the same compound, the IC50 in the test with NCI-H1975 (relative IC50, read-out: IC50) amounted to 69200 nM; in the test with NCI-H460 (setting [1]), 2590 nM; in the test with NCI-H460 (relative IC50, read-out: IC50) it was 2570 nM; in the test on HT1376 (Bladder) (listed as Cisplatin 2, read-out: IC50 (curve shift method)), 58000 nM; in the test on HT1376 (Bladder) (read-out: IC50 (curve shift method)), 64400 nM. Moreover, the “Max Inhibition_%” value came to 79.59% in the test with OVCAR-3; 101.74% in the test with 5637; 86.42% in the test with SK-OV3 (CTG assay 72 h); 99.05% in the test on A2780; 71.90% in the test on HT1376 (CTG assay 72 h); 103.60% in the test on NCI-H1975. In the test with NCI-H460, the “Max Inhibition_%” value was found to be 97.56%.
Regarding `Nc1ccn([C@@H]2O[C@H](CO)[C@@H](O)C2(F)F)c(=O)n1` [Gemcitabine], the “overall survival (median)” value with biliary tract cancer (ABC-02, 410 patients with BTC) was 8.1 months. In addition, the “progression-free survival (median)” value with biliary tract cancer (ABC-02, patients with BTC) is 5 months. The “Max Inhibition_%” value in the test with OVCAR-3 is listed as 6.95%; in the test with 5637 it was 84.49%; in the test on SK-OV3 (CTG assay 72 h) it was 65.74%; with A2780 it was 81.15%; with HT1376 (CTG assay 72 h), 9.60%; in the test with NCI-H1975, 62.12%. Further, the “Max Inhibition_%” value with NCI-H460 stood at 96.28%. For the same compound, the IC50 in the test with OVCAR-3 (setting [4]) was more than 1980 nM; in the test on OVCAR-3 (setting [5]), 20 nM; in the test on 5637 (setting [1]), 10 nM; in the test with 5637 (relative IC50, read-out: IC50) it was 10 nM; in the test with SK-OV3 (Homo sapiens, SK-OV-3, CTG assay 72 h, absolute IC50, read-out: Ab IC50) it was 20 nM; in the test with SK-OV3 (Homo sapiens, SK-OV-3, CTG assay 72 h, relative IC50, read-out: IC50), 20 nM. For the same compound, the IC50 with A2780 (setting [4]) is 10 nM; with A2780 (setting [5]), 10 nM; with HT1376 (Homo sapiens, HT-1376, CTG assay 72 h, absolute IC50, read-out: Ab IC50), more than 1980 nM; in the test with HT1376 (Homo sapiens, HT-1376, CTG assay 72 h, relative IC50, read-out: IC50), more than 1980 nM; in the test with NCI-H1975 (setting [4]), 80 nM; with NCI-H1975 (setting [5]), 20 nM. Moreover, the IC50 with NCI-H460 (setting [4]) and in the test on NCI-H460 (setting [5]) was 10 nM each time.
`C[S+]([O-])CCCCN=C=S` (stereo not drawn) [sulforaphane, Sulforaphane]: the IC50 in the test on SKOV3 cells (Homo sapiens, SK-OV-3, 24 hours exposure) worked out at 7000 nM.
